The results in this text go back to patent publication US7217730B2, “Method for the use of pyranoindole derivatives to treat infection with Hepatitis C virus” (Wyeth, priority 2002, dated 2007).

The test addresses T1, NS5B from the BK strain (genotype 1b) (Hepatitis C virus genotype 1b, UniProt P26663).
T1 construct: NS5B from the BK strain (genotype 1b) is expressed in E. coli as a protein in which the 21 C-terminal amino acids are replaced; made in house; host or cells: E. coli
As to the kind of experiment: Hepatitis C polymerase inhibition, NS5B BK strain, 33P-GTP filter assay. Particulars: Table 1A; for inhibition at 20 µM: 20 μM compound, read-out: HCV pol % inh at 20 μM; for IC50: NS5B BK strain, read-out: HCV pol BK IC50. It counts as biochemical. From the text:
The ability of the compounds of the present invention to inhibit Hepatitis C Polymerase was established by the following experimental procedure: • NS5B from the BK strain (genotype 1b) is expressed in E. coli as a protein in which the 21 C-terminal amino acids are replaced with a short linker and a hexahistidine tag ([…]). The purified protein is mixed with radioactive nucleotides and allowed to replicate a heteropolymeric RNA substrate, primed by an endogenous short hairpin, resulting in an approximately 760 nt product. The radioactive product is captured on a filter and quantitated after removal of the unincorporated nucleotides.
Reagents: • 10 mM uridine 5′-triphosphate (UTP) (Promega # p116B) • 10 mM adenine 5′-triphosphate (ATP) (Promega # p113B) • 10 mM cytidine 5′-triphosphate (CTP) (Promega # p114B) • 10 mM guanine 5′-triphosphate (GTP) (Promega # p115B) • Bovine Serum Albumin (BSA) 10 mg/ml NEB (100× at 10 mg/ml) #007-BSA • RNasein (Promega #N251X) 40 U/μl • A-[33P]-GTP (NEN-easytides NEG/606H 3000 Ci/mmol, 370 MBq/ml, 10 mCi/ml) • Falcon polypropylene 96 well plates (Becton Dickinson # 351190) • Millipore Multiscreen assasy system-96 well-filtration plate #MADE NOB 50 • Optiphase Supermix (Wallac) formulated by Fisher • Millipore Multiscreen liner for use in microbeta 1450-106 casette [(Wallac) Perkin Elmer #1450-433] • 1 M(N-[2-hydroxyethyl]piperazine-N′-[2-ethanesulfonic acid]) (HEPES), pH 7.3 • Amersham Pharmacia Biotec (US16924-500 ml) • 1 M MgCl2 (SIGMA #M1028) • Dithiothreitol (DTT) (solid) (SIGMA #D9779) • RNase free water (GIBCO-BRL #10977-023) • Dimethyl sulfoxide (Aldrich #27685-5) • Basilen Blue (Sigma, B5520) • 0.5M ethylenediaminetetraacetic acid (EDTA), pH 8 (GIBCO-BRL #15575-020) • Dibasic sodium phosphate (7-hydrate) (Na2HPO4.7H2O; Baker#3824-07) • Phosphoric acid (Baker, #0262.02)
Further reagent preparation: • 0.5 M Na Phosphate buffer. Per liter, weigh 134 gr Na2HPO4.7H2O, add water to 900 ml. Adjust pH to 7.0 with phosphoric acid. Top off with water to 1 L. • Dilute nucleotides 1:1000 to 10 μM (GTP and CTP) or 1:100 to 100 μM (ATP and UTP) into RNase free water.
Procedure: • (1) Compounds 10 μl at 10 μg/ml in 15% dimethylsulfoxide (DMSO)
When starting from 100 μg/ml compound stock in […]: • Dispense 5 μl 30% DMSO per well • Dispense 5 μl compound (100 μg/ml) per well.
When starting from 50 μg/ml compound stock in 15% DMSO: • Add 10 μl compound per well. • (2) Enzyme Mix:
Add 20 μl enzyme mix into each well of the assay plate. Incubate compound and enzyme at room temperature for 15 minutes • (3) Template mix—prepare ahead
Spin down a tube of RNA (5 μg/tube stored in 75% ethanol and 0.3 M sodium acetate) in a microcentrifuge for 20 minutes at 4° C. One tube is enough for 1–1.5 plates. Remove as much ethanol from the tube as possible by inverting the tube. Be gentle, pellet RNA may not adhere to the tube. Vacuum dry the RNA. Resuspend the RNA by adding 1 ml of DEPC water, close the cap of the tube tightly. To dissolve RNA, incubate RNA solution on ice for ˜60 minutes and gently vortex. Spin briefly to ensure all RNA solution is down to the bottom of the tube before opening cap. Gently transfer RNA solution into a 5 ml or larger tube. Add another 3 ml of DEPC water (total 4 ml of volume).
Add the following volumes of reagents
Add 20 μl template mix per reaction (i.e. 20 ng of pOF per reaction or ˜3 nM) • (4) Incubate reaction at room temperature (22–25° C.) for 2 hours. • (5) Stop reaction by adding 50 μl of 170 mM EDTA. • Final concentration of EDTA is 85 mM. • (6) Prewet filters of Millipore multiscreen assay plate by adding 200 μl of 0.5 M sodium phosphate buffer, pH 7.0 into each well. Let stand at room temperature for 2–3 minutes. • (7) Place the multiscreen filter plate onto a Millipore Manifold and turn on vacuum to allow buffer to flow through. Turn off vacuum. Transfer 80 μl of the reaction product into each well of the filter plate. Let stand for 2–3 minutes. […]

Molecules are shown by their SMILES.

T1 sequence (P26663 2420-2989): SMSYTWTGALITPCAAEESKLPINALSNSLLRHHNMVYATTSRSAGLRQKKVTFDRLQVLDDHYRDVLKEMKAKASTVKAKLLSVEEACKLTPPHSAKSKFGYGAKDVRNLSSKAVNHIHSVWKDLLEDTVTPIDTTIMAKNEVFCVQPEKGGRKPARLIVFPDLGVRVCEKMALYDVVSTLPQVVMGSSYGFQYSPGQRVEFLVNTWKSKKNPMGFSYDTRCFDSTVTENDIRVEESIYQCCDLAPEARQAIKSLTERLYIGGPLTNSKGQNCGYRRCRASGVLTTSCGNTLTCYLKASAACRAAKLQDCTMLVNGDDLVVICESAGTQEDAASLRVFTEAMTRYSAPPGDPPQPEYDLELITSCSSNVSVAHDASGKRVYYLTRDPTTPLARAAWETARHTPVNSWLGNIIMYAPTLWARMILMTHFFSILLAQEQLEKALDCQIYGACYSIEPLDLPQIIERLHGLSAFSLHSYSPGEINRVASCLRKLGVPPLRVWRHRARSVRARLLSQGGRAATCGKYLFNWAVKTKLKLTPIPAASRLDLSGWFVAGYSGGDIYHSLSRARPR

As a reminder, the IC50 is the concentration that gives 50% inhibition. As for `O=C(O)CC1(c2ccccc2)OCCc2c1[nH]c1c(Cl)ccc(Cl)c21` (centres unmarked) [Example 52, (5,8-dichloro-1-phenyl-1,3,4,9-tetrahydropyrano[3,4-b]indol-1-yl)acetic acid], the inhibition at 20 µM stood at 11% and the half-maximal inhibitory concentration (IC50) is more than 20 µM.
Regarding `O=C(O)CC1(c2ccoc2)OCCc2c1[nH]c1c(Cl)ccc(Cl)c21` (centres unmarked) [Example 53, [5,8-dichloro-1-(3-furyl)-1,3,4,9-tetrahydropyrano[3,4-b]indol-1-yl]acetic acid], the inhibition at 20 µM worked out at 62% and the half-maximal inhibitory concentration (IC50) was 13 µM.
Turning to `CC(C)CCCC1(CC(=O)O)OCCc2c1[nH]c1c(Cl)ccc(Cl)c21` (centres unmarked) [Example 54, [5,8-dichloro-1-(4-methylpentyl)-1,3,4,9-tetrahydropyrano[3,4-b]indol-1-yl]acetic acid], the inhibition at 20 µM stood at 6% and the IC50 is more than 20 µM.
Consider `COc1cc(C2(CC(=O)O)OCCc3c2[nH]c2c(Cl)ccc(Cl)c32)cc(OC)c1OC` (centres unmarked) [Example 55, [5,8-dichloro-1-(3,4,5-trimethoxyphenyl)-1,3,4,9-tetrahydropyrano[3,4-b]indol-1-yl]acetic acid], for which the inhibition at 20 µM was less than 5% and the IC50 was more than 20 µM.
On to `O=C(O)CC1(c2ccccc2F)OCCc2c1[nH]c1c(Cl)ccc(Cl)c21` (centres unmarked) [Example 56, [5,8-dichloro-1-(2-fluorophenyl)-1,3,4,9-tetrahydropyrano[3,4-b]indol-1-yl]acetic acid], for which the inhibition at 20 µM was determined as 3% and the IC50 was more than 20 µM.
For `O=C(O)CC1(c2ccc(C(=O)O)cc2)OCCc2c1[nH]c1c(Cl)ccc(Cl)c21` (centres unmarked) [Example 57, 4-[1-(carboxymethyl)-5,8-dichloro-1,3,4,9-tetrahydropyrano[3,4-b]indol-1-yl]benzoic acid] the same measures were 56% and 3 µM.
Consider `CCCC1(CC(=O)O)OCCc2c1[nH]c1cccc(C#N)c21` (centres unmarked) [Example 58, (5-cyano-1-propyl-1,3,4,9-tetrahydro-pyrano[3,4-b]indol-1-yl)acetic acid], for which the inhibition at 20 µM worked out at 78% and the IC50 came to 6.9 µM.
In the case of `CC(C)C1(CC(=O)O)OCCc2c1[nH]c1cccc(C#N)c21` (centres unmarked) [Example 59, (5-cyano-1-isopropyl-1,3,4,9-tetrahydropyrano[3,4-b]indol-1-yl)acetic acid], the inhibition at 20 µM worked out at 23% and the half-maximal inhibitory concentration (IC50) is more than 20 µM.
As for `C/C=C/CCC1(CC(=O)O)OCCc2c1[nH]c1cccc(C#N)c21` (centres unmarked) [Example 60, {5-cyano-1-[(3E)-pent-3-enyl]-1,3,4,9-tetrahydropyrano[3,4-b]indol-1-yl}acetic acid], the inhibition at 20 µM turned out to be 15% and the half-maximal inhibitory concentration (IC50) is more than 20 µM.
For `N#Cc1cccc2[nH]c3c(c12)CCOC3(CC(=O)O)c1ccoc1` (centres unmarked) [Example 61, [5-cyano-1-(3-furyl)-1,3,4,9-tetrahydropyrano[3,4-b]indol-1-yl]acetic acid] the same measures were 18% and more than 20 µM.
Turning to `N#Cc1cccc2[nH]c3c(c12)CCOC3(CC(=O)O)c1ccccc1` (centres unmarked) [Example 62, (5-cyano-1-phenyl-1,3,4,9-tetrahydropyrano[3,4-b]indol-1-yl)acetic acid], the inhibition at 20 µM was 32% and the IC50 is more than 20 µM.
With `COc1cc(C2(CC(=O)O)OCCc3c2[nH]c2cccc(C#N)c32)cc(OC)c1OC` (centres unmarked) [Example 63, [5-cyano-1-(3,4,5-trimethoxyphenyl)-1,3,4,9-tetrahydropyrano[3,4-b]indol-1-yl]acetic acid], the inhibition at 20 µM worked out at 30% and the IC50 was more than 20 µM.
With `N#Cc1cccc2[nH]c3c(c12)CCOC3(CC(=O)O)c1ccc([N+](=O)[O-])cc1` (centres unmarked) [Example 64, [5-cyano-1-(4-nitrophenyl)-1,3,4,9-tetrahydropyrano[3,4-b]indol-1-yl]acetic acid], the inhibition at 20 µM came out at 18% and the concentration for half-maximal inhibition (IC50) was more than 20 µM.
